Experiments:
Test in all cases: relative viability (nuclei count vs DMSO), 5 days (fraction); higher = more cells survive
A-427 = test system: A-427
In short: (§1)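 Relative viability equals treated-well nuclei counts divided by vehicle-well nuclei counts. Counts came from 4× images of lung cancer cell lines grown in 1536-well plates for 5 days after pin-tool dosing on the day after seeding. Dosing used one drug alone or a fixed anchor-drug dose plus five library-drug doses (not always all listed) in √10 steps, and values are medians of duplicate plates.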

CAL-12T = test system: CAL-12T
In short: as §1

LK-2 = test system: LK-2
In short: as §1

NCI-H1623 = test system: NCI-H1623
In short: as §1

NCI-H1648 = test system: NCI-H1648
In short: as §1

NCI-H1651 = test system: NCI-H1651
In short: as §1

NCI-H1755 = test system: NCI-H1755
In short: as §1

Cc1csc(=NC2CCCCC2)n1/N=C/c1ccc(O)c(O)c1O [MIM1] + COc1cccc2cc(-c3nc([C@H]4CC[C@H](C(=O)O)CC4)n4ncnc(N)c34)[nH]c12 [OSI-027] (partner 0.5 µM)
relative viability (A-427; first compound 0.2 µM): 0.432 | relative viability (A-427; first compound 2 µM): 0.48 | relative viability (A-427; first compound 6.325 µM): 0.456 | relative viability (A-427; first compound 20 µM): 0.191 | relative viability (CAL-12T; first compound 0.2 µM): 0.607 | relative viability (CAL-12T; first compound 0.6325 µM): 0.579 | relative viability (CAL-12T; first compound 2 µM): 0.57 | relative viability (CAL-12T; first compound 6.325 µM): 0.445 | relative viability (CAL-12T; first compound 20 µM): 0.143 | relative viability (LK-2; first compound 0.2 µM): 0.247 | relative viability (LK-2; first compound 0.6325 µM): 0.201 | relative viability (LK-2; first compound 2 µM): 0.181 | relative viability (LK-2; first compound 6.325 µM): 0.169 | relative viability (LK-2; first compound 20 µM): 0.184 | relative viability (NCI-H1623; first compound 0.2 µM): 0.435 | relative viability (NCI-H1623; first compound 0.6325 µM): 0.416 | relative viability (NCI-H1623; first compound 2 µM): 0.412 | relative viability (NCI-H1623; first compound 6.325 µM): 0.36 | relative viability (NCI-H1623; first compound 20 µM): 0.383 | relative viability (NCI-H1648; first compound 0.2 µM): 0.246 | relative viability (NCI-H1648; first compound 0.6325 µM): 0.272 | relative viability (NCI-H1648; first compound 2 µM): 0.28 | relative viability (NCI-H1648; first compound 6.325 µM): 0.275 | relative viability (NCI-H1648; first compound 20 µM): 0.226 | relative viability (NCI-H1651; first compound 0.2 µM): 0.745 | relative viability (NCI-H1651; first compound 0.6325 µM): 0.806 | relative viability (NCI-H1651; first compound 2 µM): 0.63 | relative viability (NCI-H1651; first compound 6.325 µM): 0.611 | relative viability (NCI-H1651; first compound 20 µM): 0.612 | relative viability (NCI-H1755; first compound 0.2 µM): 0.833 | relative viability (NCI-H1755; first compound 0.6325 µM): 0.69 | relative viability (NCI-H1755; first compound 2 µM): 0.779 | relative viability (NCI-H1755; first compound 6.325 µM): 0.703 | relative viability (NCI-H1755; first compound 20 µM): 0.223

Cc1cn(-c2cc(NC(=O)c3ccc(C)c(Nc4nccc(-c5cccnc5)n4)c3)cc(C(F)(F)F)c2)cn1 [Nilotinib] + Cc1cc(Nc2cc(N3CCN(C)CC3)nc(Sc3ccc(NC(=O)C4CC4)cc3)n2)n[nH]1 [Tozasertib] (partner 0.1 µM)
relative viability (A-427; first compound 0.001 µM): 0.168 | relative viability (A-427; first compound 0.003162 µM): 0.184 | relative viability (A-427; first compound 0.01 µM): 0.149 | relative viability (A-427; first compound 0.03162 µM): 0.167 | relative viability (A-427; first compound 0.1 µM): 0.168 | relative viability (CAL-12T; first compound 0.001 µM): 0.197 | relative viability (CAL-12T; first compound 0.003162 µM): 0.217 | relative viability (CAL-12T; first compound 0.01 µM): 0.219 | relative viability (CAL-12T; first compound 0.03162 µM): 0.172 | relative viability (CAL-12T; first compound 0.1 µM): 0.211 | relative viability (LK-2; first compound 0.001 µM): 0.181 | relative viability (LK-2; first compound 0.003162 µM): 0.163 | relative viability (LK-2; first compound 0.01 µM): 0.155 | relative viability (LK-2; first compound 0.03162 µM): 0.175 | relative viability (NCI-H1623; first compound 0.001 µM): 0.415 | relative viability (NCI-H1623; first compound 0.003162 µM): 0.528 | relative viability (NCI-H1623; first compound 0.01 µM): 0.457 | relative viability (NCI-H1623; first compound 0.03162 µM): 0.401 | relative viability (NCI-H1623; first compound 0.1 µM): 0.885 | relative viability (NCI-H1648; first compound 0.003162 µM): 0.395 | relative viability (NCI-H1648; first compound 0.01 µM): 0.389 | relative viability (NCI-H1648; first compound 0.03162 µM): 0.403 | relative viability (NCI-H1648; first compound 0.1 µM): 0.383 | relative viability (NCI-H1651; first compound 0.001 µM): 0.458 | relative viability (NCI-H1651; first compound 0.003162 µM): 0.584 | relative viability (NCI-H1651; first compound 0.01 µM): 0.405 | relative viability (NCI-H1651; first compound 0.03162 µM): 0.249 | relative viability (NCI-H1651; first compound 0.1 µM): 0.275 | relative viability (NCI-H1755; first compound 0.001 µM): 0.537 | relative viability (NCI-H1755; first compound 0.003162 µM): 0.548 | relative viability (NCI-H1755; first compound 0.01 µM): 0.483 | relative viability (NCI-H1755; first compound 0.03162 µM): 0.578 | relative viability (NCI-H1755; first compound 0.1 µM): 0.415
